Data as given in US10906910B2, “Substituted bicyclic pyrimidine compounds with tubulin and multiple receptor inhibition” (Duquesne University of the Holy Spirit, priority 2014, dated 2021).

Key:
Type in all cases: cell-based
[1] = test system: 786-0; test: NCI 60 panel, Renal Cancer 786-0; details: Homo sapiens, read-out: Tumor cell inhibitory activity (NCI) GI50
[2] = test system: SNB-19; test: NCI 60 panel, CNS Cancer SNB-19; details: Homo sapiens, read-out: Tumor cell inhibitory activity (NCI) GI50
[3] = test system: SF-539; test: NCI 60 panel, CNS Cancer SF-539; details: Homo sapiens, read-out: Tumor cell inhibitory activity (NCI) GI50
[4] = test system: ACHN; test: NCI 60 panel, Renal Cancer ACHN; details: Homo sapiens, read-out: Tumor cell inhibitory activity (NCI) GI50
[5] = test system: RXF 393; test: NCI 60 panel, Renal Cancer RXF 393; details: Homo sapiens, read-out: Tumor cell inhibitory activity (NCI) GI50
[6] = test system: M14; test: NCI 60 panel, Melanoma M14; details: Homo sapiens, read-out: Tumor cell inhibitory activity (NCI) GI50
[7] = test system: EKVX; test: NCI 60 panel, NSCLC EKVX; details: Homo sapiens, read-out: Tumor cell inhibitory activity (NCI) GI50
[8] = test system: wild type HeLa cells; test: HeLa cytotoxicity, wild type; details: Homo sapiens
[9] = test system: NCI-H522; test: NCI 60 panel, NSCLC NCI-H522; details: Homo sapiens, read-out: Tumor cell inhibitory activity (NCI) GI50
[10] = test system: HCT-15; test: NCI 60 panel, Colon Cancer HCT-15; details: Homo sapiens, read-out: Tumor cell inhibitory activity (NCI) GI50
[11] = target: PDGFRβ (Homo sapiens, UniProt P09619); test: PDGFRβ kinase inhibition, whole-cell assay; details: whole-cell assay; read-out: kinase inhibition IC50 [whole-cell assays] PDGFRβ
PDGFRβ, sequence (P09619 33-1106, species assumed): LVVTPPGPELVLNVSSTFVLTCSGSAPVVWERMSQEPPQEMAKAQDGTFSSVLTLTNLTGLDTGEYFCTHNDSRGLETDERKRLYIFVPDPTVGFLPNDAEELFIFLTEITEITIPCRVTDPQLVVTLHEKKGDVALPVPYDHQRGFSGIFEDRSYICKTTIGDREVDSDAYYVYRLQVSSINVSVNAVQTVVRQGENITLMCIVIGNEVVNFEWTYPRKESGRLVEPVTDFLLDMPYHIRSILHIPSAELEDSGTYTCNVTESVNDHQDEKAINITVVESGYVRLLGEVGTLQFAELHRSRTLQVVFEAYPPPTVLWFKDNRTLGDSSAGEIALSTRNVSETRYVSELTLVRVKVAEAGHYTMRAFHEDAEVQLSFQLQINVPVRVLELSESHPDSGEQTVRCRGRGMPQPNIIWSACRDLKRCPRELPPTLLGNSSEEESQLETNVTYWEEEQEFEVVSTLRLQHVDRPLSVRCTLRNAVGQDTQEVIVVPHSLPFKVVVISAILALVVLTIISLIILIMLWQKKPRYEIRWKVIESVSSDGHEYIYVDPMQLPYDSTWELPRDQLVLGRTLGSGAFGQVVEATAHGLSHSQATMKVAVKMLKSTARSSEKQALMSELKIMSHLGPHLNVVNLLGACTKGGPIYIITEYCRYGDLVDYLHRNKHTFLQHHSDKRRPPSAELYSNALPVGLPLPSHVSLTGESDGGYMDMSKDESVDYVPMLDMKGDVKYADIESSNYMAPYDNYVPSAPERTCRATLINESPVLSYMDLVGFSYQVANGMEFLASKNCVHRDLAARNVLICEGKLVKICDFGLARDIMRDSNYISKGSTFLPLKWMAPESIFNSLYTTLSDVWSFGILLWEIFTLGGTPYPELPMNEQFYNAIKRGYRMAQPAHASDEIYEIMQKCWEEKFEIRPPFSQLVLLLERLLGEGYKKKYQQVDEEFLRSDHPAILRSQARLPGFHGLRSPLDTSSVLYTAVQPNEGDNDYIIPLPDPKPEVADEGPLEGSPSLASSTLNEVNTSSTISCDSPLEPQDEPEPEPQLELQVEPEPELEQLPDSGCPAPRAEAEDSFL

[12] = test system: HS 578T; test: NCI 60 panel, Breast Cancer HS 578T; details: Homo sapiens, read-out: Tumor cell inhibitory activity (NCI) GI50
[13] = test system: CAKI-1; test: NCI 60 panel, Renal Cancer CAKI-1; details: Homo sapiens, read-out: Tumor cell inhibitory activity (NCI) GI50
[14] = test system: UACC-257; test: NCI 60 panel, Melanoma UACC-257; details: Homo sapiens, read-out: Tumor cell inhibitory activity (NCI) GI50
[15] = test system: HCC-2998; test: NCI 60 panel, Colon Cancer HCC-2998; details: Homo sapiens, read-out: Tumor cell inhibitory activity (NCI) GI50
[16] = test system: BT-549; test: NCI 60 panel, Breast Cancer BT-549; details: Homo sapiens, read-out: Tumor cell inhibitory activity (NCI) GI50
[17] = test system: OVCAR-5; test: NCI 60 panel, Ovarian cancer OVCAR-5; details: Homo sapiens, read-out: Tumor cell inhibitory activity (NCI) GI50
[18] = test system: DU-145; test: NCI 60 panel, Prostate Cancer DU-145; details: Homo sapiens, read-out: Tumor cell inhibitory activity (NCI) GI50
[19] = test system: MDA-MB-468; test: NCI 60 panel, Breast Cancer MDA-MB-468; details: Homo sapiens, read-out: Tumor cell inhibitory activity (NCI) GI50
[20] = test system: A549/ATCC; test: NCI 60 panel, NSCLC A549/ATCC; details: Homo sapiens, read-out: Tumor cell inhibitory activity (NCI) GI50
[21] = test system: A498; test: NCI 60 panel, Renal Cancer A498; details: Homo sapiens, read-out: Tumor cell inhibitory activity (NCI) GI50
[22] = test system: T-47D; test: NCI 60 panel, Breast Cancer T-47D; details: Homo sapiens, T47D, read-out: Tumor cell inhibitory activity (NCI) GI50
[23] = test system: MDA-MB-231/ATCC; test: NCI 60 panel, Breast Cancer MDA-MB-231/ATCC; details: Homo sapiens, read-out: Tumor cell inhibitory activity (NCI) GI50
[24] = test system: UACC-62; test: NCI 60 panel, Melanoma UACC-62; details: Homo sapiens, read-out: Tumor cell inhibitory activity (NCI) GI50
[25] = target: EGFR (Homo sapiens, UniProt P00533); test: EGFR kinase inhibition, whole-cell assay; details: read-out: kinase inhibition IC50 [whole-cell assays] EGFR
EGFR, sequence (P00533 25-1210, species assumed): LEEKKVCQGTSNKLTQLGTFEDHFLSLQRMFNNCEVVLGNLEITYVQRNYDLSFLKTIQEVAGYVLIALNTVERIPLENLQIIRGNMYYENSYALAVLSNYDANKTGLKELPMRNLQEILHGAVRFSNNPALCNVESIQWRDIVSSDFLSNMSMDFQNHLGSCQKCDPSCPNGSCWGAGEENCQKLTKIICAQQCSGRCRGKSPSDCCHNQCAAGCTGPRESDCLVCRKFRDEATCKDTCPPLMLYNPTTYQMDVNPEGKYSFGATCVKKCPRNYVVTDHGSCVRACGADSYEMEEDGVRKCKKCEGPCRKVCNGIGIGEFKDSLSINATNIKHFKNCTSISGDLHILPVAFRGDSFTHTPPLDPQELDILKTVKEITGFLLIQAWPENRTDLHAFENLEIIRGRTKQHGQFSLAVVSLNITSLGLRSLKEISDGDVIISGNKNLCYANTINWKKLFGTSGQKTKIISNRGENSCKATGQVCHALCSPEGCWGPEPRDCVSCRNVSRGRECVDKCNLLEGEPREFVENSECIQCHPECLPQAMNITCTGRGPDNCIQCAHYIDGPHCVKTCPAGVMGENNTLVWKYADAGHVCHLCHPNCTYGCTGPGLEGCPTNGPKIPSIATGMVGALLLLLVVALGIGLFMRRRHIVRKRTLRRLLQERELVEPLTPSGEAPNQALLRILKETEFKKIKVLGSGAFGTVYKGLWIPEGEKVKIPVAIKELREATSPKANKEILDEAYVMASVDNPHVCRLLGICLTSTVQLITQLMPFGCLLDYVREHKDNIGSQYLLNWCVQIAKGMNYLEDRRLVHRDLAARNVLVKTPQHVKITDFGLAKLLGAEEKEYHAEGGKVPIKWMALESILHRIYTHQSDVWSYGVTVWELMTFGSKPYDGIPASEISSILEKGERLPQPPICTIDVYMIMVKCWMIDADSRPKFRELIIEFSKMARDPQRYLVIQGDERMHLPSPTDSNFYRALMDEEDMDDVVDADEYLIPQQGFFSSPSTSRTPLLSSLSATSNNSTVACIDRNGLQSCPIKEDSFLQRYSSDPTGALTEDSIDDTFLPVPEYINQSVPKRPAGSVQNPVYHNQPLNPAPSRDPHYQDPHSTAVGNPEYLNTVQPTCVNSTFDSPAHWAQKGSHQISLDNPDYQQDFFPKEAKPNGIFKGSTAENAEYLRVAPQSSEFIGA

[26] = test system: OVCAR-3; test: NCI 60 panel, Ovarian cancer OVCAR-3; details: Homo sapiens, read-out: Tumor cell inhibitory activity (NCI) GI50
[27] = test system: COLO 205; test: NCI 60 panel, Colon Cancer COLO 205; details: Homo sapiens, read-out: Tumor cell inhibitory activity (NCI) GI50
[28] = test system: MALME-3M; test: NCI 60 panel, Melanoma MALME-3M; details: Homo sapiens, read-out: Tumor cell inhibitory activity (NCI) GI50
[29] = test system: MCF7; test: NCI 60 panel, Breast Cancer MCF7; details: Homo sapiens, read-out: Tumor cell inhibitory activity (NCI) GI50
[30] = test system: CCRF-CEM; test: NCI 60 panel, Leukemia CCRF-CEM; details: Homo sapiens, read-out: Tumor cell inhibitory activity (NCI) GI50
[31] = test system: NCI-H226; test: NCI 60 panel, NSCLC NCI-H226; details: Homo sapiens, read-out: Tumor cell inhibitory activity (NCI) GI50
[32] = test system: NCI/ADR-RES; test: NCI 60 panel, Ovarian cancer NCI/ADR-RES; details: Homo sapiens, read-out: Tumor cell inhibitory activity (NCI) GI50
[33] = test system: SN12C; test: NCI 60 panel, Renal Cancer SN12C; details: Homo sapiens, read-out: Tumor cell inhibitory activity (NCI) GI50
[34] = test system: NCI-H460; test: NCI 60 panel, NSCLC NCI-H460; details: Homo sapiens, read-out: Tumor cell inhibitory activity (NCI) GI50
[35] = test system: SR; test: NCI 60 panel, Leukemia SR; details: Homo sapiens, read-out: Tumor cell inhibitory activity (NCI) GI50
[36] = test system: SF-268; test: NCI 60 panel, CNS Cancer SF-268; details: Homo sapiens, read-out: Tumor cell inhibitory activity (NCI) GI50
[37] = test system: NCI-H23; test: NCI 60 panel, NSCLC NCI-H23; details: Homo sapiens, read-out: Tumor cell inhibitory activity (NCI) GI50
[38] = test system: HL-60(TB); test: NCI 60 panel, Leukemia HL-60(TB); details: Homo sapiens, read-out: Tumor cell inhibitory activity (NCI) GI50
[39] = test system: IGROVI; test: NCI 60 panel, Ovarian cancer IGROVI; details: read-out: Tumor cell inhibitory activity (NCI) GI50
[40] = test system: UO-31; test: NCI 60 panel, Renal Cancer UO-31; details: Homo sapiens, read-out: Tumor cell inhibitory activity (NCI) GI50
[41] = test system: HOP-92; test: NCI 60 panel, NSCLC HOP-92; details: Homo sapiens, read-out: Tumor cell inhibitory activity (NCI) GI50
[42] = test system: HCT-116; test: NCI 60 panel, Colon Cancer HCT-116; details: Homo sapiens, read-out: Tumor cell inhibitory activity (NCI) GI50
[43] = test system: K-562; test: NCI 60 panel, Leukemia K-562; details: Homo sapiens, K562, read-out: Tumor cell inhibitory activity (NCI) GI50
[44] = test system: OVCAR-8; test: NCI 60 panel, Ovarian cancer OVCAR-8; details: Homo sapiens, read-out: Tumor cell inhibitory activity (NCI) GI50
[45] = test system: RPMI-8226; test: NCI 60 panel, Leukemia RPMI-8226; details: Homo sapiens, read-out: Tumor cell inhibitory activity (NCI) GI50
[46] = test system: MDA-MB-435; test: NCI 60 panel, Melanoma MDA-MB-435; details: Homo sapiens, read-out: Tumor cell inhibitory activity (NCI) GI50
[47] = test system: KM12; test: NCI 60 panel, Colon Cancer KM12; details: Homo sapiens, read-out: Tumor cell inhibitory activity (NCI) GI50
[48] = test system: TK10; test: NCI 60 panel, Renal Cancer TK10; details: Homo sapiens, TK-10, read-out: Tumor cell inhibitory activity (NCI) GI50
[49] = test system: HOP-62; test: NCI 60 panel, NSCLC HOP-62; details: Homo sapiens, read-out: Tumor cell inhibitory activity (NCI) GI50
[50] = test system: NCI 60 tumor cell line panel; test: NCI 60 tumor cell line panel, overall
[51] = test system: LOX IMVI; test: NCI 60 panel, Melanoma LOX IMVI; details: Homo sapiens, read-out: Tumor cell inhibitory activity (NCI) GI50
[52] = test system: SF-295; test: NCI 60 panel, CNS Cancer SF-295; details: Homo sapiens, read-out: Tumor cell inhibitory activity (NCI) GI50
[53] = test system: SK-OV-3; test: NCI 60 panel, Ovarian cancer SK-OV-3; details: Homo sapiens, read-out: Tumor cell inhibitory activity (NCI) GI50
[54] = test system: U251; test: NCI 60 panel, CNS Cancer U251; details: Homo sapiens, U-251, read-out: Tumor cell inhibitory activity (NCI) GI50
[55] = test system: MOLT-4; test: NCI 60 panel, Leukemia MOLT-4; details: Homo sapiens, read-out: Tumor cell inhibitory activity (NCI) GI50
[56] = test system: OVCAR-4; test: NCI 60 panel, Ovarian cancer OVCAR-4; details: Homo sapiens, read-out: Tumor cell inhibitory activity (NCI) GI50
[57] = test system: SK-MEL-28; test: NCI 60 panel, Melanoma SK-MEL-28; details: Homo sapiens, read-out: Tumor cell inhibitory activity (NCI) GI50
[58] = test system: SNB-75; test: NCI 60 panel, CNS Cancer SNB-75; details: Homo sapiens, read-out: Tumor cell inhibitory activity (NCI) GI50
[59] = test system: NCI-H322M; test: NCI 60 panel, NSCLC NCI-H322M; details: Homo sapiens, read-out: Tumor cell inhibitory activity (NCI) GI50
[60] = test system: SK-MEL-5; test: NCI 60 panel, Melanoma SK-MEL-5; details: Homo sapiens, read-out: Tumor cell inhibitory activity (NCI) GI50
[61] = test system: SW-620; test: NCI 60 panel, Colon Cancer SW-620; details: Homo sapiens, read-out: Tumor cell inhibitory activity (NCI) GI50

IC50 [11]: 90.3 nM
IC50 [25]: 33.6 nM
SMILES: COc1ccc2c(c1)CCCN2c1nc(C)nc2c(Cc3ccccc3)c[nH]c12 [Compound 2, 1-(7-Benzyl-2-methyl-5H-pyrrolo[3,2-d]pyrimidin-4-yl)-6-methoxy-1,2,3,4-tetrahydroquinoline]
GI50 [1]: 934 nM
GI50 [2]: 549 nM
GI50 [3]: 260 nM
GI50 [4]: 830 nM
GI50 [5]: 212 nM
GI50 [6]: 252 nM
GI50 [7]: 463 nM
IC50 [8]: 250 nM
GI50 [9]: 316 nM
GI50 [10]: 366 nM
GI50 [12]: 582 nM
GI50 [13]: 341 nM
GI50 [14]: 108 nM
GI50 [15]: 318 nM
GI50 [16]: 755 nM
GI50 [17]: 543 nM
GI50 [18]: 383 nM
GI50 [19]: 153 nM
GI50 [20]: 406 nM
GI50 [21]: 197 nM
GI50 [22]: 128 nM
GI50 [23]: 641 nM
GI50 [24]: 659 nM
GI50 [26]: 285 nM
GI50 [27]: 232 nM
GI50 [28]: 330 nM
GI50 [29]: 248 nM
GI50 [30]: 226 nM
GI50 [31]: 136 nM
GI50 [32]: 265 nM
GI50 [33]: 618 nM
GI50 [34]: 337 nM
GI50 [35]: 922 nM
GI50 [36]: 723 nM
GI50 [37]: 320 nM
GI50 [38]: 222 nM
GI50 [39]: 440 nM
GI50 [40]: 390 nM
GI50 [41]: 189 nM
GI50 [42]: 368 nM
GI50 [43]: 111 nM
GI50 [44]: 487 nM
GI50 [45]: 266 nM
GI50 [46]: 341 nM
GI50 [47]: 366 nM
GI50 [48]: 123 nM
GI50 [49]: 379 nM
GI50 across the NCI 60 tumor cell line panel, in words [50]: 2- to 3-digit nanomolar
GI50 [51]: 521 nM
GI50 [52]: 192 nM
GI50 [53]: 423 nM
GI50 [54]: 316 nM
GI50 [55]: 345 nM
GI50 [56]: 468 nM
GI50 [57]: 368 nM
GI50 [58]: 182 nM
GI50 [59]: 362 nM
GI50 [60]: 325 nM
GI50 [61]: 370 nM
